From patent US20020094958A1, “Materials for lysosome modulation and methods of use thereof” (priority 2000, published 2002)
Where a SMILES comes first, the peptide text is derived from it. The star is where a group is joined. Cbz = O=C(OCc1ccccc1)*; CHN2 = [N-]=[N+]=C*

Key:
[1] = tested on: hippocampal slice cultures; experiment: Synaptic marker decline and recovery after chloroquine-induced lysosomal dysfunction in hippocampal slice cultures; type: cell-based, rat; conditions: for recovery of the postsynaptic marker GluR1 concentration / recovery of the presynaptic marker synaptophysin concentration: 2-day recovery after 6-day 60 μM chloroquine, vs chloroquine baseline
Procedure: The method comprises treatment of a neural tissue culture with a lysosomal disruptor (e.g., chloroquine) to initiate lysosome dysfunction in the culture. The culture is treated with a lysosomal disruptor in order to reproduce features characteristic of neurodegeneration, especially those found in Alzheimer's disease (FIG. 7). Preferably, chloroquine is utilized for the lysosomal disruptor due to its broad targeting of pH-dependent enzymes by disrupting the proton gradient of lysosomes. Chloroquine is added to the culture for an extended period of time (the addition time period) to cause gradual cellular changes.
After a predetermined time, the lysosomal disrupter is removed from the culture and synaptic marker concentrations are determined. Subsequently, small amounts of compounds are administered to the neural tissue to modulate lysosomal enzymes. After such treatment, concentrations of synaptic markers in the neural tissue are determined, and the treated and untreated synaptic marker concentrations are compared to determine synaptic recovery (see FIG. 2). Thus by monitoring decline (during disruptor addition) and subsequent increase (during compound addition) of synaptic markers, synaptic degeneration and recovery can be assessed, and the efficacy of the added compounds can be measured.
In order to induce lysosomal dysfunction, 60 μM chloroquine in media was added separately to groups of hippocampal slice cultures. The chloroquine-containing media was changed every two days. Over a 6-day period, separate groups of slices were harvested and synaptic pathology assessed by determining the content of the postsynaptic marker GluR1. […] In a first set of slices the chloroquine was removed from the feeding media after the 6-day addition period and synaptic recovery was assessed after one and two days by measuring GluR1 concentration. […] Although the rate of decline slowed between the first and second day, there was no evidence of synaptic recovery.
In a second set of slices, synaptic recovery was assessed after removal of chloroquine-containing media and a single addition of 10 μM of the lysosomal modulator benzyloxycarbonyl-Phe-Ala-diazomethyiketone (PADK) in media was applied to cultures. As shown by the closed triangles, addition of PADK functioned to increase the GluR1 marker concentration, indicating recovery from synaptic degeneration.
Lysosomal dysfunction was induced by adding 60 μM chloroquine in media to separate groups of hippocampal slice cultures. The chloroquine-containing media was changed every two days for a total of six days. After the 6-day addition period, the chloroquine was removed from the feeding media of individual sets of cultures and presynaptic marker (synaptophysin) and postsynaptic marker (GluR1) concentrations assessed to provide a baseline indicated by the horizontal dotted lines in FIGS. 3A and 3B. 10 μM PADK, 10 μM Ampakine (trademark of Cortex Pharmaceuticals; Irvine, Calif.), and 10 μM memantine (derivatives of which are a trademark of Merz Pharmaceuticals; Germany) were added separately to separate chloroquine-treated cultures to assess their effects on synaptic recovery. After a 2-day recovery period, the separate groups of cultures were harvested and concentrations of presynaptic (synaptophysin) and postsynaptic (GluR1) markers were measured and compared to the reduced levels resulting from the 6-day chloroquine treatment. An increase from the baseline indicates recovery while no difference or further reduction of marker concentrations from the baseline indicates no recovery of synaptic maintenance.

[2] = tested on: hippocampal slice cultures; experiment: Horse-radish peroxidase dendritic transport scoring in hippocampal slice cultures; type: cell-based, rat
Procedure: Lysosomal dysfunction was produced in hippocampal slice cultures with chloroquine as in Example 2. Separate groups of slices were assessed for transport capability by applying horse-radish peroxidase to neurons and scoring its transport from cell bodies along dendrites by two independent observers. […] By monitoring intracellular tau deposition, microtubule stabilization marker (acetylated tubulin), and transport capability, it appears that changes in all of these related parameters contribute to the link between lysosomal modulation and synapse maintenance (FIG. 7).

lysosomal enzyme levels = experiment: Upmodulation of lysosomal enzyme levels in hippocampal slice cultures (Table 1); type: cell-based, rat; conditions: compounds individually applied to hippocampal slice cultures
Description: Another aspect of the invention is the provision of compounds to increase cellular content (upmodulation) of lysosomal enzymes. As used herein “upmodulation” is an increase in the cellular content of lysosomal enzymes or in the content of lysosomes. Some inventive lysosomal modulating compounds are comprised by the previously described formulas (1) M-aan—CH═N═N, (2) M-aan—CH2—O—CO—[2-R-4-R-6-R-Phenyl], (3) M-aan—NH—CH2—CH N—NH—CO—NH2 and (4) M—N═N—CO—CH2-aan—O—R. Examples of compounds include, formula (1) benzyloxycarbonyl-Phe-Ala-diazomethylketone and benzyloxycarbonyl-Phe-Phe-diazomethylketone; formula (2) is benzyloxycarbonyl-Phe-Lys-2,4,6-trimethylbenzoyloxymethylketone; formula (3) is H-Gly-Phe-Gly-aldehyde semicarbazone; formula (4) is diazoacetyl-DL-2-aminohexanoic acid-methyl ester. When these compounds were individually applied to hippocampal slice cultures, each facilitated the upmodulation of lysosomal enzyme levels (Table 1). Each of the compounds is available from BACHEM Biosciences Inc. of King of Prussia, Pa. Presently, PADK is the preferred compound for modulation of lysosomal activity.
Lysosomal modulating compounds were identified that unexpectedly stimulate lysosomal activity and/or cellular feedback processes for the upregulation of lysosomal hydrolase levels. […] Thus the inventive lysosomal modulation promotes efficient tau turnover/processing and thereby reduces the ability of abnormally phosphorylated tau to drive non-pathogenic species off of microtubules and into the aggregated state. The non-pathogenic tau molecules would then be more readily available to stabilize microtubules and their transport mechanisms that are important for neuronal functions.

cathepsin D = experiment: Cathepsin D in brain tissue of rats given PADK in drinking water; type: in vivo, rat; conditions: adult male rats, approximately 3 to 4 mg/kg/day, seven days, vs untreated group
Procedure: A further aspect of the invention is a method of modulating lysosomal function in a subject comprising administering to the subject a therapeutically effective amount of at least one inventive lysosome modulating compound or a physiologically acceptable salt thereof. As discussed in more detail later, the lysosome modulating compound benzyloxycarbonyl-Phe-Ala-diazomethylketone (PADK) was added to the drinking water of a first group of 5 adult male rats in an amount corresponding to 3 to 4 mg PADK/kg rat weight/day. […] After seven days, hippocampal and neocortical tissue was isolated from the first and the second groups. The concentration of the lysosomal enzyme cathepsin D in tissue samples was assessed by immunoblot for each of the groups.
The lysosomal modulator benzyloxycarbonyl-Phe-Ala-diazomethylketone (PADK) was added to the drinking water of a first group of 5 adult male rats in an amount corresponding to approximately 3 to 4 mg PADK/ kg rat weight/day. […] After seven days, hippocampal and neocortical tissue was isolated from the first and the second groups. The concentration of cathepsin D in tissue samples was assessed by immunoblot for each of the groups.

[3] = tested on: hippocampal slice cultures; experiment: Immunoblot of tau species and lysosomal enzymes after chloroquine-mediated lysosomal dysfunction in hippocampal slice cultures; type: cell-based, rat
Description: Lysosomal dysfunction was produced in hippocampal slice cultures with chloroquine as in Example 2.

[4] = tested on: hippocampal slice cultures; experiment: Continuous PADK application to hippocampal slice cultures over a 20-day period; type: cell-based, rat
Description: One aspect of the invention is the use of compounds to modulate lysosomal activity. The modulation of lysosomal activity may be, but is not necessarily, accompanied by an increase in cellular content of lysosomes or lysosomal enzymes. Some inventive lysosomal modulating compounds comprise the previously described formulas (1) M-aan—CH═N═N, (2) M-aan—CH2—O—CO—[2-R-4-R-6-R-Phenyl], (3) M-aan—NH—CH2—CH═N—NH—CO—NH2, (4) M-N ═N—CO—CH2—aan—O—R, and combinations thereof. An example of formula (1) is benzyloxycarbonyl-Phe-Ala-diazomethylketone (PADK). As discussed in more detail later, PADK was applied to hippocampal slice cultures at a continuous concentration of 10 μM over a 20-day period. Fresh media and PADK compound were applied every two days.
Benzyloxycarbonyl-Phe-Ala-diazomethylketone (PADK) was applied to hippocampal slice cultures at a continuous concentration of 10 μM over a 20-day period. Fresh media and PADK compound were applied every two days. […] Thus the inventive lysosomal modulation promotes efficient tau turnover/processing and thereby reduces the ability of abnormally phosphorylated tau to drive non-pathogenic species off of microtubules and into the aggregated state. The non-pathogenic tau molecules would then be more readily available to stabilize microtubules and their transport mechanisms that are important for neuronal functions. Such an inverse correlation between the two forms of tau was also evident in the hippocampus of aged mice, where the change vs. age relationships determined for hyperphosphorylated and non-phosphorylated tau were of equal but opposite slopes. Thus, lysosomal modulators may intervene in the progression of certain types of neuronal atrophy, as well as in the cellular processes that contribute to synaptic loss and the severity of Alzheimer-type dementia.

[5] = PADK for two days following 6-day chloroquine period
[6] = 2 days PADK following 6-day chloroquine treatment
[7] = 10 μM continuous, 20-day period
[8] = 6 days chloroquine then 2 days media alone, vs untreated control

SMILES: C[C@H](NC(=O)[C@H](Cc1ccccc1)NC(=O)OCc1ccccc1)C(=O)C=[N+]=[N-] [(1), benzyloxycarbonyl-Phe-Ala-diazomethylketone]
- recovery from synaptic degeneration (GluR1) ([1]; Example 2, single 10 μM addition after 6-day chloroquine, one day): significant recovery
- recovery of GluR1 level ([1]; Example 2, single 10 μM addition after 6-day chloroquine, two days): 71%
- recovery of the postsynaptic marker GluR1 concentration ([1]; Example 3, 10 μM): 70%
- recovery of the presynaptic marker synaptophysin concentration ([1]; Example 3, 10 μM): ~35%
- restoration of transport capability [2, 5]: significant restoration
- transport failure [2, 5]: did not exhibit transport failure
- upmodulated cathepsin types (lysosomal enzyme levels): B, D, S
- lysosomal enzyme (cathepsin D) concentration in hippocampal and neocortical tissue (cathepsin D): significant increases
- 55-69 kDa tau species [3, 6]: reduction
- cathepsin D [3, 6]: robust upmodulation
- levels of lysosomal enzymes cathepsin B (CB), cathepsin D (CD), cathepsin S (CS) ([3]; FIG. 5 immunoblots): enhanced levels
- control levels of tau isoforms ([3]; PADK addition alone (no chloroquine)): without altering
- cathepsin D levels [4, 7]: stably enhanced
- non-pathogenic tau isoforms [4, 7]: gradual increase
- pathogenic hyperphosphorylated tau species concentration [4, 7]: gradually reduced
- synaptic marker (GluR1) [4, 7]: without any reduction
- concentration of the lysosomal enzyme cathepsin D ([4]; 10 μM, after 5 days of treatment): not significantly altered

SMILES: CCN(CC)CCCC(C)Nc1ccnc2cc(Cl)ccc12 (centres unmarked) [chloroquine, reference compound]
- GluR1 concentration during disruptor exposure ([1]; 60 μM, 6-day exposure period): decreased
- transport capacity ([2]; 6-day chloroquine followed by 2 days media alone, vs untreated slices): adversely affected
- cathepsin D (CD) [3, 8]: small compensatory increase
- potentially pathogenic tau species of 55-69 kDa [3, 8]: enhanced levels

SMILES: [N-]=[N+]=CC(=O)[C@H](Cc1ccccc1)NC(=O)[C@H](Cc1ccccc1)NC(=O)OCc1ccccc1 [(2), benzyloxycarbonyl-Phe-Phe-diazomethylketone] (Cbz-Phe-Phe-CHN2)
- upmodulated cathepsin types (lysosomal enzyme levels): B, D

SMILES: NCC(=O)NC(Cc1ccccc1)C(=O)NCC=NNC(N)=O (stereo not drawn) [(4), H-Gly-Phe-Gly-aldehyde semicarbazone]
- upmodulated cathepsin types (lysosomal enzyme levels): B, D

SMILES: CC12CC3CC(C)(C1)CC(N)(C3)C2 [memantine, reference compound]
- recovery of the postsynaptic marker GluR1 concentration ([1]; Example 3, 10 μM): No statistically significant recovery
- recovery of the presynaptic marker synaptophysin concentration ([1]; Example 3, 10 μM): No statistically significant recovery
- GluR1 level change vs baseline ([1]; Example 3, 10 μM, 2-day recovery period, FIG. 3A): small decrease
